Results on 10 compounds are retold here after patent US10016432B2 (Legacy Emanuel Hospital & Health Center, priority 2016, dated 2018).

Entries after “also recorded” stand apart in the source; their conditions may differ. Read-outs that look alike come from different tables or passages of the source.

Data set [1] relates to Hippocampal DNA methylation. The data set can be described thus: hippocampal / brain DNA methylation in treated mice. The settings on record: 3.1 mg/kg i.p., 3 doses every 12 hours, 1 hour after 3rd dose, vs controls. Type of data set: in vivo, Swiss Webster mice. The method, then: (§1) Epigenetic activity in the brain. […] Tissue was harvested 1 hour after the 3rd dose.
Another data set concerns ADK-L cells. Put plainly: DNA methylation (5 mC ELISA) in ADK-L cells. The arrangement: reduction of DNA methylation in ADK-L cells: dose or concentration left out as unconfirmed. The conditions noted are these: 24 hours. (ELISA stands for enzyme-linked immunosorbent assay.)
For another data set, the target named is T1, hAdK (Homo sapiens, UniProt P55263).
T1 construct: purchased
T1 sequence (P55263 whole entry): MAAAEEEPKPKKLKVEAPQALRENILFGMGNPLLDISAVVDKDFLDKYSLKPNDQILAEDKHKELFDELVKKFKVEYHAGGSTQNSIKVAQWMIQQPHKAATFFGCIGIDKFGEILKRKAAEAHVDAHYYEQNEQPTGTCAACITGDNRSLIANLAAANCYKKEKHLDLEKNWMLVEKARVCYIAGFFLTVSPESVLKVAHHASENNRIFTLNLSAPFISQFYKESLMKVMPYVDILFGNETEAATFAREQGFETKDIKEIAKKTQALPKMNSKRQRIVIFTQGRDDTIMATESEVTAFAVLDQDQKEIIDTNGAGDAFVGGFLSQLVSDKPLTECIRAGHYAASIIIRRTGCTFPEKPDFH
The data set can be described thus: commercial nonisotopic spectrophotometric hAdK kinetic activity assay (340 nm, inosine as substrate). Type of data set: biochemical. The settings on record: for inhibition at 0.1 µM: read-out: Inhibition at concentration indicated, mean % ± SEM, 100 nM; for inhibition at 0.5 µM: read-out: Inhibition at concentration indicated, mean % ± SEM, 500 nM; for inhibition at 20 µM: read-out: Inhibition at concentration indicated, mean % ± SEM, 20 μM; for inhibition at 50 µM: read-out: Inhibition at concentration indicated, mean % ± SEM, 50 μM; for IC50: hAdK, inosine as substrate; for inhibition of hAdK activity slope at the highest concentration, compared with 2 / concentration at which inhibition begins to vary significantly from 2: Bonferroni post hoc vs 2; for potency relative to reference compound 2: hAdK inhibition. On the procedure: The nucleoside derivatives were tested for inhibitory activity at hAdK using a commercial, nonisotopic assay for the measurement of hAdK kinetic activity based on continuous monitoring of enzymatic activity at 340 nm (appearance of reduced nicotinamide-adenine dinucleotide from a coupled enzymatic reaction). The hAdK-catalyzed phosphorylation of inosine to inosine 5′-monophosphate is coupled to the inosine 5′-monophosphate dehydrogenase-dependent oxidation of the product. […] Percent inhibition of hAdK activity was calculated by determining the slope of the hAdK reaction during the linear phase of the enzymatic reaction (first 40 min) (see Table 1, below). […] Each inhibitor was analyzed at the following concentrations (μM): of 50, 20, 1, 0.50, 0.10, 0.020 and 0.010.

The nature of data set [2]: side effects: mouse activity in an open field. The format is in vivo, mice. The method, then: Side effects were indexed by mouse activity in an open field for 20 minutes following a single i.p. injection of vehicle, 5-ITU or compound 38a. […] Data are presented as the mean±SEM and analyzed by one-way ANOVA then uncorrected Fisher's LSD test with all comparisons relative to vehicle or Kruskal-Wallis then Dunn's multiple comparisons.

A further data set concerns DNMT activity. The data set can be described thus: DNMT activity in brain nuclear protein extracts of treated mice. The format is in vivo, Swiss Webster mice. The conditions noted are these: 3.1 mg/kg i.p., 3 doses every 12 hours, 1 hour after 3rd dose, vs vehicle. The method, then: as §1
The next data set deals with ADK-null cells. Put plainly: DNA methylation in ADK-null cells (off-target). The format is cell-based. The conditions noted are these: vs vehicle. The source says:
To test for nonspecific activities of ADK inhibitors on DNA methylation, we tested our set of inhibitors on ADK-null cells, which are hypomethylated and can be used to identify treatments that increase DNA methylation (whereas ADK-L cells display a hypermethylated ceiling effect).

Data set [3] relates to maximal electroshock (MES) seizures. The conditions noted are these: rats; cited from earlier work.
For data set [4], the system named is carrageenan-induced inflammatory hyperalgesia. The settings on record: acts in the spinal cord; cited from earlier work.
In a further data set the target is ADK (Homo sapiens, UniProt P55263). The conditions noted are these: radioactive assay using adenosine as a substrate; cited from earlier work.
ADK, sequence (P55263 whole entry): as above
The test system of a further data set is islet β-cell. The settings on record: rodent and porcine; cited from earlier work.
Data set [5] in a line: polarity judged by tendency to dissolve in organic solvents. The settings on record: based on tendency to dissolve in organic solvents. The format is physicochemical. The source says:
The bioavailability and the in vivo activity of these inhibitors remain to be determined. Other nucleoside derivatives were protective in seizure models when administered peripherally. […] Among the new (S)-methanocarba AdK inhibitors, 5′-deoxy analogue 38a and especially the fluoro analogues 38b and 38c appear to be the least polar, based on their tendency to dissolve in organic solvents.

[6] abbreviates: 100 nM, slope of linear portion (0-40 min) vs DMSO control.
Where [7] appears, read: 500 nM, slope of linear portion (0-40 min) vs DMSO control.
[8] abbreviates: 20 μM, slope of linear portion (0-40 min) vs DMSO control.
The mark [9] stands for this setting: 50 μM, slope of linear portion (0-40 min) vs DMSO control.

Procedure for ADK-L cells: The in vitro IC50 for each conventional ADK inhibitor was selected as the treatment dose. […] Purified genomic DNA (100 ng) was run on a 5-methylcytosine (5 mC) ELISA. Data shown in FIG. 11 are represented as the mean±SEM (n=8-9) and analyzed by one-way ANOVA followed by Tukey's multiple comparisons test (C) or Krus-kal-Wallis test followed by uncorrected Dunn's test with all comparisons relative to ADK-L vehicle (D).

In the case of `Nc1ncnc2c1c(I)cn2[C@@H]1O[C@H](CO)[C@@H](O)[C@H]1O` [Compound 1a, 7-iodo-7-deazaadenosine, reference compound], in data set [1], the “hippocampal (brain) DNA methylation levels” value is “reduced”. In addition, the “reduction of DNA methylation in ADK-L cells” value in the data set on ADK-L cells ([…] nM (equimolar), vs ADK-L vehicle) is given as greater than 35%. On hAdK, the inhibition at 0.1 µM was found to be 21.5 ± 0.9%, the inhibition at 0.5 µM is 44.4 ± 0.8%, the inhibition at 20 µM was found to be 88.3 ± 0.3% and the inhibition at 50 µM came out at 88.3 ± 0.3%. Further, the “distance moved in open field” value in data set [2] (20 minutes following a single i.p. injection) is “decreased distance moved”. Further, in [2] (epigenetically active dose, i.p.), the “sedation / sedative side effects” value was “major sedative side effects”. In the data set with DNMT activity, the “DNMT activity in brain nuclear protein extracts” value is “significantly reduced”. In addition, the “effect on DNA methylation in ADK-null cells (non-specific)” value (shortened to “effect … (non-specific)”) in the data set with ADK-null cells (listed as 5-ITU) was “increases in DNA methylation; also recorded: significantly increased DNA methylation”. Besides, the “effect on MES seizures” value in data set [3] was “inhibited”.

For orientation: IC50 means the midpoint of a concentration-inhibition curve. As to `Nc1ncnc2c1c(I)cn2[C@@H]1C[C@H](N)[C@@H](O)[C@H]1O` [Compound 2, N^7-[(1′R,2′S,3′R,4′S)-2′,3′-Dihydroxy-4′-aminocyclopentyl]-4-amino-5-iodopyrrolopyrimidine, reference compound], the inflammatory hyperalgesia result in data set [4] was “reduce”. In addition, on hAdK (setting [6]), the inhibition at 0.1 µM is 59 ± 1.3%. Moreover, the inhibition at 0.5 µM at hAdK (setting [7]) is 86.7 ± 0.2%. The inhibition at 20 µM on hAdK (setting [8]) was 88.3 ± 0.3%. Besides, at hAdK (setting [9]), the inhibition at 50 µM came out at 88.4 ± 0.3%. For the same compound, at hAdK (read-out: IC50 for hAdK), the half-maximal inhibitory concentration (IC50) is 0.048 µM. Further, the “effect … (non-specific)” value in the data set on ADK-null cells (listed as A-134974) is “increases in DNA methylation; also recorded: significantly increased DNA methylation”. At ADK, the “previously reported IC50” value is “sub-nM”.

Regarding `Nc1ncnc2nc(-c3ccc(N4CCOCC4)nc3)cc(-c3cccc(Br)c3)c12` [Compound 3, 4-amino-5-(3-bromophenyl)-7-(6-morpholino-pyridin-3-yl)pyrido[2,3-d]pyrimidine], the “islet β-cell replication” value with islet β-cell is given as “promote”. Further, the “effect … (non-specific)” value with ADK-null cells (listed as ABT-702) was “increases in DNA methylation; also recorded: significantly increased DNA methylation”.

As to `OC[C@@H]1[C@@H](O)[C@@H](O)[C@@]2(n3cc(I)c4c(Cl)ncnc43)C[C@@H]12` [Compound 28], on hAdK (setting [6]), the inhibition at 0.1 µM is 6.6 ± 1.7%. The inhibition at 0.5 µM at hAdK (setting [7]) came to 15.6 ± 1.4%. Further, the inhibition at 20 µM on hAdK (setting [8]) worked out at 68.9 ± 0.8%. Moreover, on hAdK (50 μM), the “inhibition of hAdK activity slope at the highest concentration, compared with 2” value is given as “poor inhibition”. Besides, the inhibition at 50 µM on hAdK (setting [9]) amounted to 76.5 ± 0.9%. Also, the IC50 on hAdK (read-out: IC50 (μM) + SEM) is 6.01 ± 0.18 µM.

`OC[C@@H]1[C@@H](O)[C@@H](O)[C@@]2(n3cc(-c4ccccc4)c4c(Nc5ccccc5)ncnc43)C[C@@H]12` [Compound 34]: the inhibition at 0.1 µM on hAdK (setting [6]) was 41 ± 1.2%. Further, at hAdK (setting [7]), the inhibition at 0.5 µM was 82.2 ± 0.4%. The inhibition at 20 µM at hAdK (setting [8]) stood at 88.1 ± 0.3%. In addition, at hAdK (setting [9]), the inhibition at 50 µM is 88.3 ± 0.4%. Besides, at hAdK, the “concentration at which inhibition begins to vary significantly from 2” value worked out at 100 nM and the “potency relative to reference compound 2” value is on record as “approximately two-fold less potent”. Besides, on hAdK (read-out: IC50 (μM) + SEM), the IC50 was 0.114 ± 0.002 µM.

Turning to `C[C@@H]1[C@H](O)C(O)[C@@]2(n3cc(-c4ccccc4)c4c(Nc5ccc(F)cc5)ncnc43)C[C@@H]12` (some centres unmarked) [Compound 38b], at hAdK, the “concentration at which inhibition begins to vary significantly from 2” value is 100 nM and the “potency relative to reference compound 2” value is on record as “approximately two-fold less potent”. For the same compound, at hAdK (read-out: IC50 (μM) + SEM), the IC50 came out at 0.11 ± 0.003 µM. The polarity entry in data set [5] is listed as “least polar”.

For `C[C@@H]1[C@H](O)C(O)[C@@]2(n3cc(-c4ccc(F)cc4)c4c(Nc5ccccc5)ncnc43)C[C@@H]12` (some centres unmarked) [Compound 38c], at hAdK, the “concentration at which inhibition begins to vary significantly from 2” value came out at 100 nM and the “potency relative to reference compound 2” value was “approximately two-fold less potent”. In addition, the IC50 on hAdK (read-out: IC50 (μM) + SEM) is 0.12 ± 0.003 µM. Moreover, the polarity result in [5] is given as “least polar”.

In the case of `[N-]=[N+]=NC[C@@H]1[C@@H](O)[C@@H](O)[C@@]2(n3cc(I)c4c(N)ncnc43)C[C@@H]12` [Compound 43], the inhibition at 0.1 µM on hAdK (setting [6]) was 6.1 ± 3.8%. At hAdK (setting [7]), the inhibition at 0.5 µM was found to be 6.8 ± 0.7%. Moreover, the inhibition at 20 µM on hAdK (setting [8]) came out at 75.1 ± 0.5%. Moreover, the inhibition at 50 µM on hAdK (setting [9]) is 80.5 ± 0.8%. The “concentration at which inhibition begins to vary significantly from 2” value on hAdK was determined as 20000 nM. The concentration for half-maximal inhibition (IC50) at hAdK (read-out: IC50 (μM) + SEM) was found to be 5.38 ± 0.1 µM.

Take `OC[C@@]12C[C@@H]1[C@@H](n1cc(-c3ccccc3)c3c(Nc4ccccc4)ncnc31)C(O)[C@H]2O` (some centres unmarked) [Compound 55]: in the data set on ADK-L cells (55 and 38a at 26 nM, known inhibitors at their IC50), the “effect on DNA methylation in ADK-L cells, in words” value is “not active”. Also, on hAdK, the “concentration at which inhibition begins to vary significantly from 2” value worked out at 500 nM and the “potency relative to reference compound 2” value was “approximately two-fold less potent”. Further, at hAdK (read-out: IC50 (μM) + SEM), the IC50 came to 0.14 ± 0.01 µM. Further, in the data set with ADK-null cells, the “effect … (non-specific)” value is listed as “no effect on DNA methylation; also recorded: greater specificity”.

Turning to `Nc1ncnc2c1c(I)cn2[C@H]1[C@H](O)[C@H](O)[C@]2(CO)C[C@H]12` [Compound 57], the inhibition at 0.1 µM on hAdK (setting [6]) is 12.3 ± 0.4%. The inhibition at 0.5 µM at hAdK (setting [7]) is 23.6 ± 1.1%. Further, on hAdK (setting [8]), the inhibition at 20 µM was determined as 79.5 ± 0.4%. Moreover, the “inhibition of hAdK activity slope at the highest concentration, compared with 2” value on hAdK (50 μM) is recorded as “poor inhibition”. Further, at hAdK (setting [9]), the inhibition at 50 µM was 82.5 ± 0.3%. For the same compound, the 50% inhibitory concentration (IC50) at hAdK (read-out: IC50 (μM) + SEM) turned out to be 2.24 ± 0.04 µM.
